In BindingDB's records for patent US20250179023 (Abbisko Therapeutics, 2025):

Molecular target: Programmed cell death 1 ligand/protein 1 (Homo sapiens, UniProt Q9NZQ7)
Experiment: PD1-PDL1 HTRF Binding Activity Test
Procedure: The effect of compounds of the examples of the present invention on the PD-1/PD-L1 interaction was determined by the PD-1/PD-L1 binding assay kit from Cisbio (#64ICP01PEG or 64ICP01PEH).

Programmed cell death 1 ligand/protein 1, sequence (Q9NZQ7 whole entry): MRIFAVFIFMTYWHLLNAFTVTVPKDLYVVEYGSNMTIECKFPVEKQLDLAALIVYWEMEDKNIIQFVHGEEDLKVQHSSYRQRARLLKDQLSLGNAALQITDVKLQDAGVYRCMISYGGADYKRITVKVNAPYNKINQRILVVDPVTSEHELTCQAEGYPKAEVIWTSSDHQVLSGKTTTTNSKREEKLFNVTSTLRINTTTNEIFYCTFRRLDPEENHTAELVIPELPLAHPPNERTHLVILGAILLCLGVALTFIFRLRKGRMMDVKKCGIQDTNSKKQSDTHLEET
Programmed cell death 1 ligand/protein 1, sequence (Q15116 whole entry, further chain): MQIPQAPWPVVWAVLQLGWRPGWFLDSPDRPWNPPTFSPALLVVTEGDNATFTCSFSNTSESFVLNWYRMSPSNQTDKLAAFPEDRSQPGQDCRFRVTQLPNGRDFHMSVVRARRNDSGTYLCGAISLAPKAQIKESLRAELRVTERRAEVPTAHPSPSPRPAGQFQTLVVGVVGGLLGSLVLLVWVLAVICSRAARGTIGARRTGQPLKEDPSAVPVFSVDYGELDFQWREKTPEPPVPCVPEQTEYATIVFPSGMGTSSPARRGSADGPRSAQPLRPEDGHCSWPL

For `Cc1c(NC(=O)c2cc(C3CC3)c(CNCCC34CCC(C(=O)O)(CC3)C4)cn2)cccc1-c1cccc(NC(=O)c2cc(C3CC3)c(CNC34CCC(C(=O)O)(CC3)C4)cn2)c1C` [US20250179023, Example 5], the IC50 was 4.19 nM.
